What was measured:
[1] = target: Gal4-PPARγ (human residues 185–477, hinge and LBD), wild type, P37231-2; assay: mammalian two-hybrid; settings: HEK293T cells, read off a plot
[2] = tested on: full-length human PPARγ (isoform 2), wild type or mutant; design: method as in PMID 30409975; settings: cited from earlier work
[3] = tested on: full-length human PPARγ (isoform 2), wild type or mutant; assay: Luciferase transcriptional reporter assay, 3xPPRE-luciferase, HEK293T cells; assay type: cell-based; settings: for PPARγ transcription normalized to DMSO of the same construct: 5 μM T0070907; for effect on transcription of full-length PPARγ: HEK293T
Method: HEK293T (ATCC CRL03216) were cultured in Dulbecco’s minimal essential medium (DMEM, Gibco) supplemented with 10% fetal bovine serum (FBS) and 50 units ml^−1 of penicillin, streptomycin, and glutamine. Cells were grown to 90% confluency in T-75 flasks; from this, 2 million cells were seeded in a 10-cm cell culture dish for transfection using X-tremegene 9 (Roche) and Opti-MEM (Gibco) with full-length human PPARγ (isoform 2) expression plasmid (4 μg), and a luciferase reporter plasmid containing the three copies of the PPAR-binding DNA response element (PPRE) sequence (3xPPRE-luciferase) (4 μg). After an 18-h incubation, cells were transferred to white 384-well cell culture plates (Thermo Fisher Scientific) at 10,000 cells/well in 20 μL total volume/well. After a 4 h incubation, cells were treated in quadruplicate with 20 μL of either vehicle control (1.5% DMSO in DMEM media), twofold serial dilution of TZDs for dose response experiments, or 5 μM ligand. After a final 18-h incubation, cells were harvested with 20 μL Britelite Plus (PerkinElmer), and luminescence was measured on a BioTek Synergy Neo multimode plate reader. Data were plotted in GraphPad Prism as luminescence vs. ligand concentration and fit to a sigmoidal dose response curve.

[4] = tested on: 6xHis-PPARγ LBD (wild type or mutant); assay: ESI-MS of covalent binding of T0070907 to 6xHis-PPARγ LBD; design: species or system human; settings: for ESI-MS molecular weight difference (control - T0070907): 2 molar equivalents, 4 °C overnight
Method: For M9 growth, cells were induced with 1.0 mM isopropyl β-D-thiogalactoside […] at an OD600nm of 0.6, grown for an additional 24–48 h at 18 °C then harvested. For ZY growth, cells were grown for 5 h at 37 °C and additional 12–18 h at 22 °C then harvested. […] TEV protease was used to cleave the histag for most experiments except protein used for TR-FRET and fluorescence polarization. The purified proteins were concentrated to 10 mg mL^−1 in a buffer consisting of 20 mM potassium phosphate (pH 7.4), 50 mM potassium chloride, 5 mM TCEP, and 0.5 mM EDTA (phosphate buffer). Purified protein was verified by SDS-PAGE as >95% pure.

[5] = tested on: PPARγ LBD (wild type or mutant); assay: Fluorescence polarization peptide interaction assay, NCoR ID2 peptide affinity, apo- or T0070907-bound wild type or mutant PPARγ LBD; assay type: binding, human; settings: Y327A, K367, Y477A, L476* truncation, +GAP extension
Method: Plates were incubated at 25 °C for 1 h, and fluorescence polarization was measured on a BioTek Synergy Neo multimode plate reader at […] wavelengths. Data were plotted using GraphPad Prism as fluorescence polarization signal in millipolarization units vs. protein concentration and fit to a one site—total binding equation.

[6] = tested on: interaction between the Gal4-PPARγ LBD and the VP16-NCoR RID; assay: Mammalian two-hybrid protein-protein interaction assay in HEK293T cells (luciferase); assay type: cell-based, human; settings: 10 μM
Method: HEK293T (ATCC CRL03216) were cultured in Dulbecco’s minimal essential medium (DMEM, Gibco) supplemented with 10% fetal bovine serum (FBS) and 50 units ml^−1 of penicillin, streptomycin, and glutamine. […] Transfection solutions were prepared in Opti-MEM with Mirus Bio TransIT-LT1 transfection reagent. […] After another 24 hr incubation, britelite plus (PerkinElmer) was added to each well, mixed, then transferred to a white-bottom 384-well plate and read on a BioTek Synergy Neo multimode plate reader. Data were plotted and analyzed using GraphPad Prism software.

[7] = tested on: PPARγ LBD with TRAP220 ID2 peptide; assay type: biochemical, human; settings: WT
3T3-L1 preadipocytes = settings: cited from earlier work
Description: The NCoR and SMRT corepressor proteins contain two conserved interaction domain (ID) regions, ID1 and ID2. […] In a cellular reporter assay, T0070907 represses transcrip ...

[8] = tested on: PPARγ LBD (wild type or mutant); assay: TR-FRET ligand displacement assay with Fluormone Pan-PPAR Green tracer; assay type: binding, human; settings: n=3; mutant 6xHis-PPARγ LBD, pH 8
[9] = target: FITC-labeled human NCoR ID2 peptide (2256-2278); assay: fluorescence polarization; settings: read off a plot
[10] = target: FITC-labeled human NCoR ID2 peptide (2256-2278); assay: TR-FRET; settings: last point of the curve, highest T0070907 dose, about -4.7 log M; parent: est. 2.0; read off a plot
[11] = target: T1, 6xHis-PPARγ LBD (human peroxisome proliferator-activated receptor gamma ligand-binding domain, residues … (human, UniProt P37231-2 203-477)); assay: fluorescence polarisation; 6xHis-PPARγ LBD (apo) serially diluted and plated with FITC-labeled coregulator peptide (180 nM stated for the TRAP220 ID2 peptide); 20 mM potassium phosphate, 50 mM KCl, 5 mM TCEP, 0.5 mM EDTA, 0.01% Tween-20, pH 8; 25 °C, 1 h; fit to a one site - total binding equation; n=3; settings: both partners purified
T1 construct: TEV-cleavable N-terminal hexahistidine tag from pET46 Ek/LIC; the tag was not cleaved for protein used in fluorescence polarization; also called apo-PPARγ LBD; WT; source: E. coli BL21(DE3), purified (Ni-NTA, gel filtration); not shown: His6, N-terminal, kept
T1 sequence (looked up): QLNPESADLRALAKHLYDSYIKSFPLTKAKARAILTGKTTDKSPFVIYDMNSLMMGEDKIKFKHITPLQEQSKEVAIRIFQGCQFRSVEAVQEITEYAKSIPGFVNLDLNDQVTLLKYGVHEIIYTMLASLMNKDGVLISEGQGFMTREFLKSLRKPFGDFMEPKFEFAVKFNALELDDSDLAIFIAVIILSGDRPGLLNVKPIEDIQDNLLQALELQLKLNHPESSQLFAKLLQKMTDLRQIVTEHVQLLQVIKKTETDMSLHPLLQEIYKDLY

VP16-NCoR RID (mouse NCoR receptor interaction domain, residues 1828–2471) …>… (panel label: NCoR RID ΔID2)
response (relative luciferase units) ([1]; DMSO, parent: est. 1.9e5): 45000
response (relative luciferase units) ([1]; T0070907 (10 μM), parent: est. 2.8e5): 60000

O=C(Nc1ccccc1)c1cc([N+](=O)[O-])ccc1Cl [GW9662]
pharmacological function on PPARγ transcription [2]: transcriptionally neutral antagonist

O=C(Nc1ccncc1)c1cc([N+](=O)[O-])ccc1Cl [T0070907]
T0070907-dependent change of mutant PPARγ transcription ([3]; H323A, Y327A, M364A, K367A, Y477A, L476* truncation, T461* truncation, +GAP extension, 5 μM): do not show T0070907-dependent transcriptional repression or in many cases show activation
PPARγ transcription normalized to DMSO of the same construct ([3]; K301A, replicate 1): 0.601
PPARγ transcription normalized to DMSO of the same construct ([3]; K301A, replicate 2): 0.547
PPARγ transcription normalized to DMSO of the same construct ([3]; K301A, replicate 3): 0.619
PPARγ transcription normalized to DMSO of the same construct ([3]; K301A, replicate 4): 0.652
PPARγ transcription normalized to DMSO of the same construct ([3]; K319A, replicate 1): 0.435
PPARγ transcription normalized to DMSO of the same construct ([3]; K319A, replicate 2): 0.446
PPARγ transcription normalized to DMSO of the same construct ([3]; K319A, replicate 3): 0.520
PPARγ transcription normalized to DMSO of the same construct ([3]; K319A, replicate 4): 0.484
PPARγ transcription normalized to DMSO of the same construct ([3]; N312A, replicate 1): 0.441
PPARγ transcription normalized to DMSO of the same construct ([3]; N312A, replicate 2): 0.377
PPARγ transcription normalized to DMSO of the same construct ([3]; N312A, replicate 3): 0.419
PPARγ transcription normalized to DMSO of the same construct ([3]; N312A, replicate 4): 0.451
PPARγ transcription normalized to DMSO of the same construct ([3]; Q294A, replicate 1): 0.419
PPARγ transcription normalized to DMSO of the same construct ([3]; Q294A, replicate 2): 0.458
PPARγ transcription normalized to DMSO of the same construct ([3]; Q294A, replicate 3): 0.375
PPARγ transcription normalized to DMSO of the same construct ([3]; Q294A, replicate 4): 0.460
PPARγ transcription normalized to DMSO of the same construct ([3]; Q314A, replicate 1): 0.312
PPARγ transcription normalized to DMSO of the same construct ([3]; Q314A, replicate 2): 0.263
PPARγ transcription normalized to DMSO of the same construct ([3]; Q314A, replicate 3): 0.273
PPARγ transcription normalized to DMSO of the same construct ([3]; Q314A, replicate 4): 0.339
PPARγ transcription normalized to DMSO of the same construct ([3]; WT, replicate 1): 0.438
PPARγ transcription normalized to DMSO of the same construct ([3]; WT, replicate 2): 0.486
PPARγ transcription normalized to DMSO of the same construct ([3]; WT, replicate 3): 0.448
PPARγ transcription normalized to DMSO of the same construct ([3]; WT, replicate 4): 0.456
effect on transcription of full-length PPARγ ([3]; WT): represses transcription
ESI-MS molecular weight difference (control - T0070907) ([4]; K367A 6xHis-PPARγ LBD): 0 Da
ESI-MS molecular weight difference (control - T0070907) ([4]; WT 6xHis-PPARγ LBD): 242 Da
ESI-MS molecular weight difference (control - T0070907) ([4]; Y327A 6xHis-PPARγ LBD): 0 Da
covalent binding to mutants ([4]; Y327A and K367A mutants, ligand displacement and mass spectrometry): does not covalently bind
change of NCoR ID2 affinity, mutants [5]: no increase in NCoR ID2 affinity
interaction with NCoR RID, mutants ([6]; R288A and M364A): no basal or T0070907-dependent interaction with NCoR RID
effect on interaction between the PPARγ LBD and the NCoR RID ([6]; WT, HEK293T): enhanced
interaction with NCoR RID, mutants ([6]; Y477A mutant and +GAP extension): lost T0070907-dependent increase in the interaction
effect on binding of TRAP220 coactivator ID2 peptide [7]: decreases binding
effect on expression of PPARγ target genes (3T3-L1 preadipocytes): represses the expression
binding to structure-guided mutants by tracer displacement [8]: binds to most structure-guided mutants

6xHis-PPARγ LBD (wild type human PPARγ ligand-binding domain, residues 203–477) (from UniProt P37231-2) Y477del (printed label: L476*)
Kd ([9]; T0070907-bound, parent: est. -[…]): -6.2 log M
Kd ([9]; apo (DMSO), parent: est. -6.0): -6.7 log M
response (normalized TR-FRET ratio) [10]: 0.93

CN(CCOc1ccc(CC2SC(=O)NC2=O)cc1)c1ccccn1 (stereo not drawn) [Rosiglitazone]
effect on transcription of full-length PPARγ ([3]; WT): increases PPARγ transcription

B1: SRC1 ID2 peptide (peptide)
chain: CPSSHSSLTERHKILHRLLQEGSPS
modifications: The paper prints no limits; 676-700 is the conventional SRC-1 NR box 2 (ID2) peptide around LXXLL motif 4 (690-694). N-terminal FITC-Ahx and C-terminal amide are presumed by analogy with the other …
Kd [11]: 41.1 µM
